Data: patent US7807411B2, “Genetically encoded fluorescent coumarin amino acids” (The Scripps Research Institute, priority 2006, dated 2010)

B1: CouRS-D8 (protein)
chain: MDEFEMIKRNTSEIISEEELREVLKKDEKSAEIGFEPSGKIHLGHYLQIKKMIDLQNAGFDIIIHLGDLGAYLNQKGELDEIRKIGDYNKKVFEAMGLKAKYVYGSEYHLDKDYTLNVYRLALKTTLKRARRSMELIAREDENPKVAEVIYPIMQVNGIHYGGVDVAVGGMEQRKIHMLARELLPKKVVCIHNPVLTGLDGEGKMSSSKGNFIAVDDSPEEIRAKIKKAYCPAGVVEGNPIMEIAKYFLEYPLTIKRPEKFGGDLTVNSYEELESLFKNKELHPMDLKNAVAEELIKILEPIRKRL
modifications: L-(7-hydroxycoumarin-4-yl) ethylglycine aminoacyl-tRNA synthetase

How the values were obtained:
[1] = Absorption and emission spectra of the coumarin amino acid; format: physicochemical; conditions: phenolate form, pH 7.4, 100 mM sodium phosphate buffer
Protocol: FIG. 2 provides absorption and emission spectra of L-(7-hydroxycoumarin-4-yl)ethylglycine. Both spectra were recorded at pH 7.4, 100 mM sodium phosphate buffer. At this pH, L-(7-hydroxycoumarin-4-yl)ethylglycine is present in both phenol and phenolate forms (in approximately a 2:1 ratio). The phenolate form has an extinction coefficient of 17000 at […] and a quantum yield of 0.63.

[2] = pH sensitivity of the absorption spectrum (pKa determination); format: physicochemical; conditions: 60 μM in 100 mM sodium phosphate buffer, calculated from absorbance at 360 nm versus pH
Protocol: FIG. 7 provides an absorption spectrum of 60 μM coumarinyl amino acid L-(7-hydroxycoumarin-4-yl)ethylglycine in 100 mM sodium phosphate buffer.
The absorption spectrum of 60 μM coumarinyl amino acid 7-hydroxycoumarin-ethylglycine was measured in 100 mM sodium phosphate buffer. The absorbance of 360 nm increased while pH increased.

[3] = test system: amber codon in the chloramphenicol acetyl transferase (CAT) gene; assay: Chloramphenicol survival of synthetase clones (amber suppression in CAT gene); format: cell-based, E. coli; conditions: 60 hours at 37° C., GMML-agar
Protocol: Subsequently, this library was subjected to rounds of both positive and negative selections. In the positive selection, cell survival is dependent on the suppression of an amber codon introduced at a permissive site in the chloramphenicol acetyl transferase (CAT) gene when cells co-transformed with pBK-lib and MjtRNA^TyrCUA are grown in the presence of 1 mM unnatural amino acid (UAA) and chloramphenicol (Xie and Schultz, Methods (2005) 36:227-238). Positively selected clones are then transformed into cells containing MjtRNA^TyrCUA and a gene encoding the toxic barnase protein with three amber mutations introduced at permissive sites. These cells are grown in the absence of UAA to remove any clones that utilize endogenous amino acids (negative selection). These positive and negative selection are described in detail below.
Positive Selection—E. coli DH10B harboring the pREP(2)/YC plasmid was used as the host strain for the positive selection. Cells were transformed with the pBK-lib5 library, recovered in SOC for 1 hour, washed twice with glycerol minimal media with leucine (GMML) before plating on GMML-agar plates supplemented with kanamycin, chloramphenicol, tetracycline and 7-hydroxycoumarin-ethylglycine at 50 μg/mL, 60 μg/mL, 15 μg/mL and 1 mM respectively. […]

Molecule | extinction coefficient ([1]; at 360 nm) | quantum yield [1] | pKa [2] | chloramphenicol concentration at which the clone survives ([3]; in the absence of 7-hydroxycoumarin-ethylglycine) | chloramphenicol concentration at which the clone survives ([3]; in the presence of 1 mM 7-hydroxycoumarin-ethylglycine)
N[C@@H](CCc1cc(=O)oc2cc(O)ccc12)C(=O)O [L-(7-hydroxycoumarin-4-yl)ethylglycine] | 17000 M⁻¹ cm⁻¹ | 0.63 | 7.8 | – | –
B1 | – | – | – | 20 µg/mL | 100 µg/mL
